# Test system: EGFR (Epidermal Growth Factor Receptor)
# Test: Hydrogen peroxide production in vascular smooth muscle cells after endothelin-1 stimulation, with or without EGFR inhibition, measured with YAG:Ce and reduced GdVO4:Eu nanoparticles
# Format: cell-based
# Details: mouse vascular smooth muscle cells; 270 nM endothelin-1; AG1478 applied 30 min before stimulation and added to the observation medium
# Method: Firstly, mammalian cells were prepared. For this purpose, mouse vascular smooth muscle cells (primary culture) were cultured in RPMI (“Roswell Park Memorial Institute” medium) containing 10% of fetal calf serum and antibiotics, in the present case penicillin and streptomycin. When confluence reaches 80%, the cells are taken and deposited on glass slides. In this particular case, 1.5×10^4 cells are typically arranged on a glass slide. The cells are then cultured on the slides for forty-eight hours in the complete culture medium, and then in a medium without serum for twenty-four hours.
# In addition, a stable colloidal solution of […] with a concentration roughly equal to 1 mM is prepared. […]
# Then a slide with cells loaded with nanoparticles is placed on a sample holder and 1 mL of buffered physiological medium (HBSS/1 mM HEPES) is added. […] After fifty seconds of observation, the initial medium is replaced with physiological medium containing 270 nM of endothelin-1 (ET-1) and the luminescence of individual nanoparticles is observed for several minutes on a full-field sensor (EM-CCD ImageEM camera, Hamamatsu). […]
# Next, the variations in intensity of the particles observed (doped with Ce or Eu) over time are determined using image analysis or calculation software (for example Matlab). Each curve obtained is normalized, taking the first values measured for reference. […]
smiles,measurement,value
COc1cc2ncnc(Nc3cccc(Cl)c3)c2cc1OC [AG1478],contribution of the EGFR pathway to hydrogen peroxide production (inhibited cells produce half as much hydrogen peroxide as the normal cells),50%

# Reference: patent US10788497B2, “Method for detecting oxidising species” (ECOLE POLYTECHNIQUE, priority 2015, dated 2020)
